The results in this text go back to patent publication US20030171218A1, “Substituted 3-heteroaryl(amino- or oxy)pyrrolidin-2-ones, their preparation and use as herbicides or plant growth regulators” (priority 2001, published 2003).

The subject of test [1] is weed plants such as Digitaria sanguinalis, Echinochloa crus-galli, Setaria faberi, Setaria viridis, Sorghum halepense, Abutilon theophrasti, Amaranthum …. The test can be described thus: Pre-emergence effect on weeds (greenhouse pot test). Format: in vivo, monocotyledonous and dicotyledonous weed plants. The settings on record: application rate of 1 kg or less of active substance per hectare; scored visually after 3 to 4 weeks by comparison with untreated controls. The source says: Seeds or rhizome pieces of monocotyledonous and dicotyledonous weed plants are placed in sandy loam soil in plastic pots and covered with soil. The compounds according to the invention which are formulated in the form of wettable powders or emulsion concentrates are then applied to the surface of the soil cover in the form of aqueous suspensions or emulsions at an application rate of 600 to 800 l of water/ha (converted), in various dosages.
After the treatment, the pots are placed in a greenhouse and kept under good growth conditions for the weeds. After the test plants have emerged, the damage to the plants or the negative effect on the emergence is scored visually after a test period of 3 to 4 weeks by comparison with untreated controls. As shown by the test results, compounds according to the invention have good herbicidal pre-emergence activity against a broad spectrum of weed grasses and broad-leafed weeds.

For test [2], the system named is harmful plants such as Digitaria sanguinalis, Echinochloa crus-galli, Setaria faberi, Setaria viridis, Sorghum halepense, Abutilon theophrasti, Amaranthum …. Kind of test: Post-emergence effect on weeds (greenhouse pot test). The settings on record: application rate of 1 kg and less of active substance per hectare; treated at three-leaf stage; scored visually after about 3 to 4 weeks by comparison with untreated controls. Format: in vivo, monocotyledonous and dicotyledonous weeds. The procedure:
Seeds or rhizome pieces of monocotyledonous and dicotyledonous weeds are placed in sandy loam soil in plastic pots, covered with soil and grown in a greenhouse under good growth conditions. Three weeks after sowing, the test plants are treated at the three-leaf stage. The compounds according to the invention which were formulated as wettable powders or emulsion concentrates are sprayed, at various dosages, onto the green parts of the plants at an application rate of 600 to 800 l of water/ha (converted). After the test plants have remained in the greenhouse for about 3 to 4 weeks under optimum growth conditions, the effect of the preparations is scored visually by comparison with untreated controls. The agents according to the invention also have good herbicidal activity post-emergence against a broad spectrum of economically important weed grasses and broad-leafed weeds.

`CN(c1nc(N)nc(C(C)(C)F)n1)C1CCN(c2cccc(Cl)c2)C1=O` (centres unmarked) [Example A79]: the herbicidal activity pre-emergence entry in test [1] is listed as “very good herbicidal activity”. Also, the herbicidal activity post-emergence entry in test [2] is given as “very good herbicidal activity”.

Consider `CN(c1nc(N)nc(C(C)(C)F)n1)C1CCN(c2cccc(OC(F)(F)F)c2)C1=O` (centres unmarked) [Example A80], for which the herbicidal activity pre-emergence entry in test [1] is given as “very good herbicidal activity”. Also, the herbicidal activity post-emergence entry in test [2] is given as “very good herbicidal activity”.

Consider `CN(c1nc(N)nc(C(C)(C)F)n1)C1CCN(c2cccc(C(F)(F)F)c2)C1=O` (centres unmarked) [Example A81], for which, in test [1], the herbicidal activity pre-emergence entry is listed as “very good herbicidal activity”. In test [2], the herbicidal activity post-emergence result is recorded as “very good herbicidal activity”.

In the case of `CN(c1nc(N)nc(C(C)(C)F)n1)C1CCN(c2cccc(F)c2)C1=O` (centres unmarked) [Example A82], in test [1], the herbicidal activity pre-emergence entry is listed as “very good herbicidal activity”. In addition, the herbicidal activity post-emergence entry in test [2] is reported as “very good herbicidal activity”.

As for `Cc1cc(N2CCC(N(C)c3nc(N)nc(C(C)(C)F)n3)C2=O)ccc1F` (centres unmarked) [Example A83], in test [1], the herbicidal activity pre-emergence result is recorded as “very good herbicidal activity”. For the same molecule, in test [2], the herbicidal activity post-emergence result is reported as “very good herbicidal activity”.

For the molecule `Cc1cccc(N2CCC(N(C)c3nc(N)nc(C(C)(C)F)n3)C2=O)c1` (centres unmarked) [Example A84], the herbicidal activity pre-emergence result in test [1] is “very good herbicidal activity”. For the same molecule, the herbicidal activity post-emergence result in test [2] is listed as “very good herbicidal activity”.

As to `Cc1cccc(N2CCC(Nc3nc(N)nc(C(C)(C)F)n3)C2)c1` (centres unmarked) [Example E7], the herbicidal activity pre-emergence entry in test [1] is on record as “very good herbicidal activity”. The herbicidal activity post-emergence result in test [2] was “very good herbicidal activity”.

On to `Cc1cccc(N2CCC(Nc3nc(N)nc(C(C)F)n3)C2)c1` (centres unmarked) [Example E8], for which the herbicidal activity pre-emergence result in test [1] was “very good herbicidal activity”. In addition, the herbicidal activity post-emergence entry in test [2] is reported as “very good herbicidal activity”.

Take `Cc1cccc(N2CCC(Nc3nc(N)nc(C(C)C)n3)C2)c1` (centres unmarked) [Example E9]: the herbicidal activity pre-emergence entry in test [1] was “very good herbicidal activity”. For the same molecule, the herbicidal activity post-emergence entry in test [2] was “very good herbicidal activity”.

As for `Cc1cc(N2CCC(Nc3nc(N)nc(C(C)(C)F)n3)C2)ccc1F` (centres unmarked) [Example E10], the herbicidal activity pre-emergence result in test [1] is “very good herbicidal activity”. The herbicidal activity post-emergence entry in test [2] was “very good herbicidal activity”.

On to `Cc1cc(N2CCC(Nc3nc(N)nc(C(C)F)n3)C2)ccc1F` (centres unmarked) [Example E11], for which the herbicidal activity pre-emergence entry in test [1] is recorded as “very good herbicidal activity”. Further, the herbicidal activity post-emergence entry in test [2] is reported as “very good herbicidal activity”.

Take `Cc1cc(N2CCC(Nc3nc(N)nc(C(C)C)n3)C2)ccc1F` (centres unmarked) [Example E12]: the herbicidal activity pre-emergence result in test [1] is recorded as “very good herbicidal activity”. For the same molecule, the herbicidal activity post-emergence result in test [2] is listed as “very good herbicidal activity”.

In the case of `CC(C)(F)c1nc(N)nc(NC2CCN(c3cccc(F)c3)C2)n1` (centres unmarked) [Example E13], the herbicidal activity pre-emergence entry in test [1] is given as “very good herbicidal activity”. The herbicidal activity post-emergence entry in test [2] is “very good herbicidal activity”.

Regarding `CC(F)c1nc(N)nc(NC2CCN(c3cccc(F)c3)C2)n1` (centres unmarked) [Example E14], the herbicidal activity pre-emergence result in test [1] was “very good herbicidal activity”. The herbicidal activity post-emergence entry in test [2] is “very good herbicidal activity”.

`CC(C)c1nc(N)nc(NC2CCN(c3cccc(F)c3)C2)n1` (centres unmarked) [Example E15]: in test [1], the herbicidal activity pre-emergence result is recorded as “very good herbicidal activity”. Further, the herbicidal activity post-emergence result in test [2] was “very good herbicidal activity”.

For `CC(C)(F)c1nc(N)nc(NC2CCN(c3cccc(Cl)c3)C2)n1` (centres unmarked) [Example E16], the herbicidal activity pre-emergence entry in test [1] is recorded as “very good herbicidal activity”. The herbicidal activity post-emergence entry in test [2] is “very good herbicidal activity”.

In the case of `CC(F)c1nc(N)nc(NC2CCN(c3cccc(Cl)c3)C2)n1` (centres unmarked) [Example E17], the herbicidal activity pre-emergence result in test [1] is on record as “very good herbicidal activity”. Further, the herbicidal activity post-emergence result in test [2] is on record as “very good herbicidal activity”.

As to `CC(C)c1nc(N)nc(NC2CCN(c3cccc(Cl)c3)C2)n1` (centres unmarked) [Example E18], in test [1], the herbicidal activity pre-emergence entry is recorded as “very good herbicidal activity”. The herbicidal activity post-emergence result in test [2] is recorded as “very good herbicidal activity”.

`CC(C)(F)c1nc(N)nc(NC2CCN(c3cccc(C(F)(F)F)c3)C2)n1` (centres unmarked) [Example E19]: the herbicidal activity pre-emergence result in test [1] is “very good herbicidal activity”. Also, the herbicidal activity post-emergence result in test [2] is on record as “very good herbicidal activity”.

With `CC(F)c1nc(N)nc(NC2CCN(c3cccc(C(F)(F)F)c3)C2)n1` (centres unmarked) [Example E20], the herbicidal activity pre-emergence entry in test [1] is “very good herbicidal activity”. In addition, the herbicidal activity post-emergence result in test [2] is “very good herbicidal activity”.

As to `CC(C)c1nc(N)nc(NC2CCN(c3cccc(C(F)(F)F)c3)C2)n1` (centres unmarked) [Example E21], in test [1], the herbicidal activity pre-emergence result was “very good herbicidal activity”. Besides, the herbicidal activity post-emergence entry in test [2] is reported as “very good herbicidal activity”.

As to `CC(C)(F)c1nc(N)nc(NC2CCN(c3cccc(OC(F)(F)F)c3)C2)n1` (centres unmarked) [Example E22], the herbicidal activity pre-emergence result in test [1] is “very good herbicidal activity”. For the same molecule, the herbicidal activity post-emergence result in test [2] is given as “very good herbicidal activity”.

`CC(F)c1nc(N)nc(NC2CCN(c3cccc(OC(F)(F)F)c3)C2)n1` (centres unmarked) [Example E23]: the herbicidal activity pre-emergence entry in test [1] is listed as “very good herbicidal activity”. For the same molecule, the herbicidal activity post-emergence entry in test [2] is given as “very good herbicidal activity”.

For the molecule `CC(C)c1nc(N)nc(NC2CCN(c3cccc(OC(F)(F)F)c3)C2)n1` (centres unmarked) [Example E24], in test [1], the herbicidal activity pre-emergence entry is listed as “very good herbicidal activity”. In addition, the herbicidal activity post-emergence result in test [2] is on record as “very good herbicidal activity”.

`Cc1cc(C)cc(N2CCC(Nc3nc(N)nc(C(C)(C)F)n3)C2)c1` (centres unmarked) [Example E25]: the herbicidal activity pre-emergence entry in test [1] is on record as “very good herbicidal activity”. In addition, the herbicidal activity post-emergence result in test [2] is listed as “very good herbicidal activity”.

Take `Cc1cc(C)cc(N2CCC(Nc3nc(N)nc(C(C)F)n3)C2)c1` (centres unmarked) [Example E26]: the herbicidal activity pre-emergence entry in test [1] is “very good herbicidal activity”. Besides, the herbicidal activity post-emergence entry in test [2] is on record as “very good herbicidal activity”.

For the molecule `Cc1cc(C)cc(N2CCC(Nc3nc(N)nc(C(C)C)n3)C2)c1` (centres unmarked) [Example E27], in test [1], the herbicidal activity pre-emergence entry is given as “very good herbicidal activity”. In test [2], the herbicidal activity post-emergence entry was “very good herbicidal activity”.

Take `CN(c1nc(N)nc(C(C)(C)F)n1)C1CCN(c2cccc(C(F)(F)F)c2)C1` (centres unmarked) [Example E48]: in test [1], the herbicidal activity pre-emergence entry was “very good herbicidal activity”. Also, the herbicidal activity post-emergence entry in test [2] is given as “very good herbicidal activity”.

With `CN(c1nc(N)nc(C(C)(C)F)n1)C1CCN(c2cccc(OC(F)(F)F)c2)C1` (centres unmarked) [Example E49], in test [1], the herbicidal activity pre-emergence result is on record as “very good herbicidal activity”. In addition, in test [2], the herbicidal activity post-emergence result is on record as “very good herbicidal activity”.

As to `Cc1cc(C)cc(N2CCC(N(C)c3nc(N)nc(C(C)(C)F)n3)C2)c1` (centres unmarked) [Example E50], the herbicidal activity pre-emergence entry in test [1] is “very good herbicidal activity”. The herbicidal activity post-emergence result in test [2] is on record as “very good herbicidal activity”.

For `CN(c1nc(N)nc(C(C)(C)F)n1)C1CCN(c2cccc(Cl)c2)C1` (centres unmarked) [Example E55], the herbicidal activity pre-emergence entry in test [1] is listed as “very good herbicidal activity”. The herbicidal activity post-emergence result in test [2] is reported as “very good herbicidal activity”.
